Measurements reported in doi:10.1101/2025.11.20.689572v1 (biorxiv, 2025).
Like-named read-outs stand apart in the source and are kept apart here.

Assays:
[1] = biological target: T1, M4 (Homo sapiens, UniProt P08173); assay: TRUPATH BRET2 G protein dissociation, HEK293; format: cell-based; settings: HBSS, […] HEPES pH […] °C; agonist mode
T1 construct: gene CHRM4; full-length receptor; HEK293 with TRUPATH sensors (function)
T1 sequence (P08173 1-479): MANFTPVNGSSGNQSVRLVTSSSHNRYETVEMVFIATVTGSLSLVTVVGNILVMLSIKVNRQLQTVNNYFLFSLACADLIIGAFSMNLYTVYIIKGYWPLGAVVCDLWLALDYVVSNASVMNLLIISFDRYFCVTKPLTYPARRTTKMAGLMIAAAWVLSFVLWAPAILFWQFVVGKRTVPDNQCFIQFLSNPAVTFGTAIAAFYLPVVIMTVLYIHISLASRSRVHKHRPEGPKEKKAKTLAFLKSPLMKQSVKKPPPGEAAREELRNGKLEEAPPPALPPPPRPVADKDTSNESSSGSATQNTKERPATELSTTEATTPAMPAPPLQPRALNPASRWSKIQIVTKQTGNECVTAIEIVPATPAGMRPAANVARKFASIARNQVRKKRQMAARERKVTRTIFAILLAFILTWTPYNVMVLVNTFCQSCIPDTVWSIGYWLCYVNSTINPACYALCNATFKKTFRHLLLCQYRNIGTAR

[2] = biological target: T2, 5-HT1D (Homo sapiens, UniProt P28221); assay: TRUPATH BRET2 G protein dissociation, HEK293; format: cell-based; settings: HBSS, […] HEPES pH […] °C; agonist mode
T2 construct: gene HTR1D; full-length receptor; HEK293 with TRUPATH sensors (function)
T2 sequence (P28221 whole entry): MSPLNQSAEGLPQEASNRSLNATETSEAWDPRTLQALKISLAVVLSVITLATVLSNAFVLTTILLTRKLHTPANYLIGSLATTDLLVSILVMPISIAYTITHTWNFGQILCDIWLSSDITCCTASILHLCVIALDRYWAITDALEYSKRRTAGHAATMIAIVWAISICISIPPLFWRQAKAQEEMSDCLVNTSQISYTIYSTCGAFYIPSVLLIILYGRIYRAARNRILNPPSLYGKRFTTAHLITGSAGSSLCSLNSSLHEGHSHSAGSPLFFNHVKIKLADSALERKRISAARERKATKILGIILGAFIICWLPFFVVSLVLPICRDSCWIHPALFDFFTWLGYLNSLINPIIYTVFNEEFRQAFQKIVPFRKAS

[3] = biological target: T3, CHRM2 (Homo sapiens, UniProt P08172); assay: cell-based; set-up: PRESTO-Tango beta-arrestin2 recruitment, luciferase luminescence, concentration-response; settings: HTLA, Assay=Tango, agonist mode, % of control agonist
T3 sequence (P08172 1-466): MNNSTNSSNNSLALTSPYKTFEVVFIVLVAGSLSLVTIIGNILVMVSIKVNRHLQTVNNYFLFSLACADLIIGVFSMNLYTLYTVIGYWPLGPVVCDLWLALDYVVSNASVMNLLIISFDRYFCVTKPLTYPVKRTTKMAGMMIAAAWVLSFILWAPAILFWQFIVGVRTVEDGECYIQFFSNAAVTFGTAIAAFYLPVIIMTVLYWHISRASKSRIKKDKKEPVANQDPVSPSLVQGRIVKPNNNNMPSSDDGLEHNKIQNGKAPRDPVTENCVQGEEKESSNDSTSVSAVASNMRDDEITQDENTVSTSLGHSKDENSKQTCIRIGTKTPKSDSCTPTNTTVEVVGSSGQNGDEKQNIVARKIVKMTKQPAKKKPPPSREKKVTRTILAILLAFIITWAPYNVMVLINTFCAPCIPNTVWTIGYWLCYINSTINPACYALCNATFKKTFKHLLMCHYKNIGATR
Experimental: (§1) Off-target agonism across the human GPCRome was profiled using PRESTO-Tango, following established protocols with minor adaptations [10]–[12]. […] After ~6 h recovery, cells were transfected with 20 ng plasmid DNA per well and incubated overnight. The next day, 10 µL of test compound (prepared in DMEM + 1% dFBS) was added, and plates were incubated overnight. Media and compounds were removed, and 20 µL per well of Bright-Glo luciferase reagent diluted in assay buffer (Hank’s Balanced Salt Solution (HBSS), 20 mM HEPES, pH 7.4) was added. After 20 min at room temperature (dark), luminescence was recorded. Each plate included the dopamine D2 receptor (DRD2) stimulated with 100 nM quinpirole as a positive control. For the GPCRome screen, each receptor was tested in quadruplicate at 0 and 10 µM compound (final). Responses were expressed as fold change relative to the basal (0 µM) condition. Follow-up concentration–response assays were performed under identical conditions except that serial dilutions of compounds (maximum ~30 µM, final) were added to generate full concentration–response curves.

[4] = biological target: T4, CHRM5 (Homo sapiens, UniProt P08912); assay: cell-based; set-up: PRESTO-Tango beta-arrestin2 recruitment, luciferase luminescence, concentration-response; settings: HTLA, Assay=Tango, agonist mode, % of control agonist
T4 sequence (P08912 1-532): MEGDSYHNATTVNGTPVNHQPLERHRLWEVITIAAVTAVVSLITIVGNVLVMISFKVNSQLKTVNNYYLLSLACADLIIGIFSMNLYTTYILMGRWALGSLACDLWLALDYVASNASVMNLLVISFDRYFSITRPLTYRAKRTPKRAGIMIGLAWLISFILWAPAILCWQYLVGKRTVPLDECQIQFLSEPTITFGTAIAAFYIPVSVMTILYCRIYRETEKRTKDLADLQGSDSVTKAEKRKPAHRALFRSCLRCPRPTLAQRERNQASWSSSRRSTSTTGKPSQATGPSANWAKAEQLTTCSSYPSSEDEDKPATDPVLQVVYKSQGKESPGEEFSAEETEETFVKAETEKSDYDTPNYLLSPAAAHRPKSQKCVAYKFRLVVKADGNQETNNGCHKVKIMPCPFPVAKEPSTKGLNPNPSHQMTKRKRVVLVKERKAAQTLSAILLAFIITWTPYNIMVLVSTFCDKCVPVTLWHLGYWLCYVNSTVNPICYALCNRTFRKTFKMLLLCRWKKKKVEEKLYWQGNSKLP
Experimental: as §1

[5] = biological target: HRH3 (Homo sapiens, UniProt Q9Y5N1); assay: cell-based; set-up: species or system HEK293; TRUPATH BRET2 G-protein dissociation; antagonist mode against agonist EC80; settings: agonist mode
Sequence of HRH3 (Q9Y5N1 whole entry): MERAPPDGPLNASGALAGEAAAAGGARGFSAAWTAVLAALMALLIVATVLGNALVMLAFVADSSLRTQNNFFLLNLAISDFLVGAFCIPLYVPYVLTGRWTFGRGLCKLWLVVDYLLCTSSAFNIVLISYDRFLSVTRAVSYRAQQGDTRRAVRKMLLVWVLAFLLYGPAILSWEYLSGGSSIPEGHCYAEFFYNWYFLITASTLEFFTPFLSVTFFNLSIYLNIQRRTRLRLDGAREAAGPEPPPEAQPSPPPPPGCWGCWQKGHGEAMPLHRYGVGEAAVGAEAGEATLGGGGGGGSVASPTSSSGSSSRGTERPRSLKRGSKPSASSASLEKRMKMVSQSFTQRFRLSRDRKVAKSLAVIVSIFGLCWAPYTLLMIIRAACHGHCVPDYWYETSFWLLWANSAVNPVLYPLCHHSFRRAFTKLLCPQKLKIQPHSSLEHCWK

[6] = biological target: T5, HTR1A (Homo sapiens, UniProt P08908); assay: cell-based; set-up: species or system HEK293; TRUPATH BRET2 G-protein dissociation; antagonist mode against agonist EC80; settings: agonist mode
T5 sequence (P08908 1-422): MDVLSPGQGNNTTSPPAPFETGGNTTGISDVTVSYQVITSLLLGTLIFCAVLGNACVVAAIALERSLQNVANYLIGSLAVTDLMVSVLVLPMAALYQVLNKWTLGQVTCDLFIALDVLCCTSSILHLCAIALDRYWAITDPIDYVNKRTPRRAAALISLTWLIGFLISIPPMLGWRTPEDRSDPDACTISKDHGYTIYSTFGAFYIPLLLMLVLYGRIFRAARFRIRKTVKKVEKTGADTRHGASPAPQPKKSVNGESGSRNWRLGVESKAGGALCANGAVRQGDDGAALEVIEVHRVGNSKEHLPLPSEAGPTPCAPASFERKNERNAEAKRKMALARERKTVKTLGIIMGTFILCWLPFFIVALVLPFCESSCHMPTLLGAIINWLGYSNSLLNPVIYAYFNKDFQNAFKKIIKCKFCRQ

[7] = read-out: N-Desmethyl Xanomeline
[8] = N-Desmethyl Xanomeline, Assay=Gi2
[9] = N-Desmethyl Xanomeline, Assay=GoB

For `CCCCCCOc1nsnc1C1=CCCNC1` [N-desmethylxanomeline], the EC50 [1] was “differential activation of M1-M5 muscarinic receptor transducers”, the EC50 [2] was “full or partial agonists at 5-HT1D and 5-HT1A in a transducer-dependent fashion” and the Emax [3, 7] was 42.6%. It also gave an Emax [4, 7] of 48.2%, an EC50 ([5]; N-Desmethyl Xanomeline, Assay=Gi1) of 10.9 µM and an EC50 [5, 8] of 4.53 µM. The EC50 ([5]; N-Desmethyl Xanomeline, Assay=Gi3) was 18.7 µM, the EC50 [5, 9] was 7.02 µM and the EC50 [6, 8] was 4.33 µM. The EC50 ([6]; N-Desmethyl Xanomeline, Assay=GoA) was 1.32 µM and the EC50 [6, 9] was 2 µM.

`CCCCCCOc1nsnc1C1=CCCN(C)C1` [Xanomeline] was tested, and the EC50 [1] was “xanomeline being more potent and efficacious than carbachol at M1 and M4 muscarinic receptors”, the EC50 [2] was “full or partial agonists at 5-HT1D and 5-HT1A in a transducer-dependent fashion” and the Emax ([3]; read-out: Xanomeline) was 45.5%. For the same molecule, the Emax ([4]; read-out: Xanomeline) was 70.1%, the EC50 ([5]; Xanomeline, Assay=Gi2) was 10.3 µM and the EC50 ([5]; Xanomeline, Assay=GoA) was 4.13 µM. The EC50 ([5]; Xanomeline, Assay=GoB) was 2.64 µM, the EC50 ([6]; Xanomeline, Assay=Gi2) was 11.7 µM and the EC50 ([6]; Xanomeline, Assay=GoA) was 2.34 µM. It also gave an EC50 ([6]; Xanomeline, Assay=GoB) of 3.69 µM.
